Measured values published in patent US20190381014A1, “ISOQUINOLINONE COMPOUNDS AND USE THEREOF IN PREPARATION OF ANTIVIRAL DRUGS” (Ginkgo Pharma Co., Ltd., priority 2016, published 2019).

Tested on: HBsAg
Experiment: HBsAg inhibition in HepG2.2.15 culture supernatant (ELISA)
Assay type: cell-based, HBV
Details: HepG2.2.15 cells, supernatant on day 8, ELISA; read-out: Activity in HBsAg inhibition, EC50
Protocol: Test method: HepG2.2.15 cell line was seeded into 96-well plates at 1.5×10^4 cells/well. On the following day, the cells were treated with a three-fold serial dilution series of the compounds at eight concentration points, and 2 duplicate wells were determined in parallel. The final DMSO concentration in the culture solution was 0.5%. On the fifth day, the culture solution was replaced with fresh solution containing the compounds. On the eighth day, the culture supernatant was collected and the HBsAg in the culture supernatant was detected by ELISA. The percent inhibition was calculated with respect to the blank control.

SMILES | EC50 [nM]
COc1cc2c(cc1OC1CCOCC1)CC(C(C)C)n1cc(C(=O)O)c(=O)cc1-2 (racemic) [Compound I-3-rac, 6-isopropyl-10-methoxy-2-oxo-9-((tetrahydro-2H-pyran-4-yl)oxy)-6,7-dihydro-2H-pyrido[2,1-α]isoquinoline-3-carboxylic acid] | 7.04
COc1cc2c(cc1O[C@@H]1CCOC1)CC(C(C)(C)C)n1cc(C(=O)O)c(=O)cc1-2 (mixture of isomers) [Compound I-28-rac, 6-(tert-butyl)-10-methoxy-2-oxo-9-(((R)-tetrahydrofuran-3-yl)oxy)-6,7-dihydro-2H-pyrido[2,1-α]isoquinoline-3-carboxylic acid] | 5.78
COCC1(COc2cc3c(cc2Cl)-c2cc(=O)c(C(=O)O)cn2C(C(C)C)C3)CC1 (racemic) [Compound I-24-rac, 10-chloro-6-isopropyl-9-((1-(methoxymethyl)cyclopropyl)methoxy)-2-oxo-6,7-dihydro-2H-pyrido[2,1-α]isoquinoline-3-carboxylic acid] | 5.78

Same assay, conditions: Hepatitis B virus, HepG2.2.15, 192 h, read-out: Activity in HBsAg inhibition, EC50

SMILES | EC50 [nM]
COCC1(COc2cc3c(cc2OC)-c2cc(=O)c(C(=O)O)cn2C(C(C)(C)COC)C3)COC1 (racemic) [Compound I-55-rac, 10-methoxy-6-(1-methoxy-2-methylpropan-2-yl)-9-((3-(methoxymethyl)oxetan-3-yl)methoxy)-2-oxo-6,7-dihydro-2H-pyrido[2,1-α]isoquinoline-3-carboxylic acid] | 7.23
COc1cc2c(cc1OC1CCCC1)CC(C(C)C)n1cc(C(=O)O)c(=O)cc1-2 (racemic) [Compound I-10-rac, 9-(cyclopentyloxy)-6-isopropyl-10-methoxy-2-oxo-6,7-dihydro-2H-pyrido[2,1-α]isoquinoline-3-carboxylic acid] | 3.78
COCC(C)(C)C1Cc2cc(O[C@@H]3CCOC3)c(OC)cc2-c2cc(=O)c(C(=O)O)cn21 (mixture of isomers) [Compound I-52-rac, 10-methoxy-6-(1-methoxy-2-methylpropan-2-yl)-2-oxo-9-(((R)-tetrahydrofuran-3-yl)oxy)-6,7-dihydro-2H-pyrido[2,1-α]isoquinoline-3-carboxylic acid] | 7.57
COc1cc2c(cc1O[C@H]1C[C@@H](OC)C1)C[C@@H](C(C)C)n1cc(C(=O)O)c(=O)cc1-2 [Compound I-19, (S)-6-isopropyl-10-methoxy-9-((1 s, 3R)-3-methoxycyclobutoxy)-2-oxo-6,7-dihydro-2H-pyrido[2,1-α]isoquinoline-3-carboxylic acid] | 2.89
COCC1(COc2cc3c(cc2OC)-c2cc(=O)c(C(=O)O)cn2C(C(C)C)C3)CC1 (racemic) [Compound I-6-rac, 6-isopropyl-10-methoxy-9-((1-(methoxymethyl)cyclopropyl)methoxy)-2-oxo-6,7-dihydro-2H-pyrido[2,1-α]isoquinoline-3-carboxylic acid] | 4.12
COCC1(COc2cc3c(cc2Cl)-c2cc(=O)c(C(=O)O)cn2C(C(C)C)C3)COC1 (racemic) [Compound I-25-rac, 10-chloro-6-isopropyl-9-((3-(methoxymethyl)oxetan-3-yl)methoxy)-2-oxo-6,7-dihydro-2H-pyrido[2,1-α]isoquinoline-3-carboxylic acid] | 6.97
COc1cc2c(cc1O[C@@H]1CCOC1)CC(C(C)C)n1cc(C(=O)O)c(=O)cc1-2 (mixture of isomers) [Compound I-2-rac, 6-isopropyl-10-methoxy-2-oxo-9-(((R)-tetrahydrofuran-3-yl)oxy)-6,7-dihydro-2H-pyrido[2,1-α]isoquinoline-3-carboxylic acid] | 3.26
CO[C@H]1C[C@H](Oc2cc3c(cc2Cl)-c2cc(=O)c(C(=O)O)cn2C(C(C)C)C3)C1 (mixture of isomers) [Compound I-23-rac, 10-chloro-6-isopropyl-9-((1R,3R)-3-methoxycyclobutoxy)-2-oxo-6,7-dihydro-2H-pyrido [2,1-α]isoquinoline-3-carboxylic acid] | 6.83
COC1CC(COc2cc3c(cc2Cl)-c2cc(=O)c(C(=O)O)cn2C(C(C)C)C3)C1 (racemic) [Compound I-26-rac, 10-chloro-6-isopropyl-9-((3-methoxycyclobutyl)methoxy)-2-oxo-6,7-dihydro-2H-pyrido[2,1-α]isoquinoline-3-carboxylic acid] | 7.56
COc1cc2c(cc1OC1CCC1)C[C@@H](C(C)C)n1cc(C(=O)O)c(=O)cc1-2 [Compound I-20, (S)-9-cyclobutoxy-6-isopropyl-10-methoxy-2-oxo-6,7-dihydro-2H-pyrido[2,1-α]isoquinoline-3-carboxylic acid] | 2.56
COc1cc2c(cc1OCC1CC(OC)C1)CC(C(C)(C)C)n1cc(C(=O)O)c(=O)cc1-2 (racemic) [Compound I-32-rac, 6-(tert-butyl)-10-methoxy-9-((3-methoxycyclobutyl)methoxy)-2-oxo-6,7-dihydro-2H-pyrido[2,1-α]isoquinoline-3-carboxylic acid] | 7.31
COCC1(COc2cc3c(cc2OC)-c2cc(=O)c(C(=O)O)cn2C(C(C)(C)C)C3)COC1 (racemic) [Compound I-31-rac, 6-(tert-butyl)-10-methoxy-9-((3-(methoxymethyl)oxetan-3-yl)methoxy)-2-oxo-6,7-dihydro-2H-pyrido[2,1-α]isoquinoline-3-carboxylic acid] | 5.98
COc1cc2c(cc1C#CC1CC1)CC(C(C)C)n1cc(C(=O)O)c(=O)cc1-2 (racemic) [Compound I-11-rac, 9-(cyclopropylethynyl)-6-isopropyl-10-methoxy-2-oxo-6,7-dihydro-2H-pyrido[2,1-α]isoquinoline-3-carboxylic acid] | 2.61
COc1cc2c(cc1OCC1CC(OC)C1)CC(C(C)C)n1cc(C(=O)O)c(=O)cc1-2 (racemic) [Compound I-8-rac, 6-isopropyl-10-methoxy-9-((3-methoxycyclobutyl)methoxy)-2-oxo-6,7-dihydro-2H-pyrido[2,1-α]isoquinoline-3-carboxylic acid] | 5.59
COCC(C)(C)C1Cc2cc(O[C@H]3C[C@H](OC)C3)c(OC)cc2-c2cc(=O)c(C(=O)O)cn21 (mixture of isomers) [Compound I-53-rac, 10-methoxy-6-(1-methoxy-2-methylpropan-2-yl)-9-((1R,3R)-3-methoxycyclobutoxy)-2-oxo-6,7-dihydro-2H-pyrido[2,1-α]isoquinoline-3-carboxylic acid] | 6.65
